# Activity calls are given as the source filed them. The calls are words filed in the database; no cut-off is given here.
# Legend:
# Embryonic stem cell = test: Antiproliferative activity against mouse Embryonic stem cell assessed as […] in H4K20me3 at 10 uM incubated for 3 days by immunofluorescence analysis; type: functional, cell-based; conditions: time 3.0 day
# B-cell = test: Induction of DNA repair in mouse B cells assessed as inhibition in H4K20me2 level at 1 to 10 uM incubated for 96 hrs by western blot analysis; type: functional, cell-based; conditions: dose 1-10 µM
# [1] = target: Adenosine receptor A1 (Homo sapiens) (UniProt P30542); test: Inhibition of human Adenosine receptor A1 at 10 uM relative to control
# [2] = target: Adenosine receptor A2a (Homo sapiens) (UniProt P29274); test: Inhibition of human Adenosine receptor A2a at 10 uM relative to control
# [3] = target: Delta-type opioid receptor (Homo sapiens) (UniProt P41143); test: Inhibition of human Delta-type opioid receptor at 10 uM relative to control
# [4] = target: 5-hydroxytryptamine receptor 2B (Homo sapiens) (UniProt P41595); test: Inhibition of human 5-hydroxytryptamine receptor 2B at 10 uM relative to control
# Homo sapiens = species on record: Homo sapiens; test: Inhibition of human Sodium channel site 2 at 10 uM relative to control
# [5] = target: Sodium-dependent dopamine transporter (Homo sapiens) (UniProt Q01959); test: Inhibition of human Sodium-dependent dopamine transporter at 10 uM relative to control
# [6] = target: Melanocortin receptor 4 (Homo sapiens) (UniProt P32245); test: Inhibition of human Melanocortin receptor 4 at 10 uM relative to control
# [7] = target: Muscarinic acetylcholine receptor M3 (Homo sapiens) (UniProt P20309); test: Inhibition of human Muscarinic 3 at 10 uM relative to control
# [8] = target: Type-1 angiotensin II receptor (Homo sapiens) (UniProt P30556); test: Inhibition of human AT1 at 10 uM relative to control
# [9] = target: Beta-2 adrenergic receptor (Homo sapiens) (UniProt P07550); test: Inhibition of human Beta-2 adrenergic receptor at 10 uM relative to control
# [10] = target: Prostaglandin E2 receptor EP4 subtype (Homo sapiens) (UniProt P35408); test: Inhibition of human Prostanoid EP4 receptor at 10 uM relative to control
# [11] = target: T1, 5-hydroxytryptamine receptor 1A (Homo sapiens) (UniProt P08908); test: Inhibition of human 5-HT1A at 10 uM relative to control
# T1 sequence (whole entry): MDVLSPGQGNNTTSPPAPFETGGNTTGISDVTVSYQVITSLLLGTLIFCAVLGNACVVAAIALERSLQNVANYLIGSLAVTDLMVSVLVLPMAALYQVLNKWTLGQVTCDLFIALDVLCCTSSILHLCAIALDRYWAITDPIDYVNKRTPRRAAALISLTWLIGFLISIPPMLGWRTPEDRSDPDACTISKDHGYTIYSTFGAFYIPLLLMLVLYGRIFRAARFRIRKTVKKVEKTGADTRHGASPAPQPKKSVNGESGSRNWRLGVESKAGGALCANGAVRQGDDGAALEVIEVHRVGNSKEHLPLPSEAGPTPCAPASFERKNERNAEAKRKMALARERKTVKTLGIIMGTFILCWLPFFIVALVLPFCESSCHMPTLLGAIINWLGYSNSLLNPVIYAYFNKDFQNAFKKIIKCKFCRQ
# [12] = target: Vasopressin V1a receptor (Homo sapiens) (UniProt P37288); test: Inhibition of human AVPR V1a at 10 uM relative to control
# [13] = target: D(2) dopamine receptor (Homo sapiens) (UniProt P14416); test: Inhibition of human D(2) dopamine receptor at 10 uM relative to control
# [14] = target: 5-hydroxytryptamine receptor 6 (Homo sapiens) (UniProt P50406); test: Inhibition of human 5-HT6 at 10 uM relative to control
# [15] = target: Neuropeptide Y receptor type 2 (Homo sapiens) (UniProt P49146); test: Inhibition of human NPY-Y2 receptor at 10 uM relative to control
# [16] = target: 5-hydroxytryptamine receptor 2A (Homo sapiens) (UniProt P28223); test: Inhibition of human 5-HT2A receptor expressed in HEK293T cells at 10 uM relative to control; type: cell-based
# [17] = target: Histamine H1 receptor (Homo sapiens) (UniProt P35367); test: Inhibition of human histamine H1 receptor expressed in stable HEK cells at 10 uM relative to control; type: cell-based
# [18] = target: Delta-type opioid receptor (Homo sapiens) (UniProt P41143); test: Inhibition of human Delta-type opioid receptor expressed in stable HEK cells at 10 uM relative to control; type: cell-based
# [19] = target: Histamine H3 receptor (Homo sapiens) (UniProt Q9Y5N1); test: Inhibition of human Histamine H3 receptor expressed in human Flp-In-293 cells at 10 uM relative to control; type: cell-based
# [20] = target: 5-hydroxytryptamine receptor 5A (Homo sapiens) (UniProt P47898); test: Inhibition of human HTR5A expressed in Cricetulus griseus Flp-In-CHO cells at 10 uM relative to control; type: cell-based
# Rattus norvegicus = species on record: Rattus norvegicus; test: Inhibition of Rat GABAA at 10 uM in the presence of 3H and BZP relative to control
# [21] = target: Alpha-1B adrenergic receptor (Homo sapiens) (UniProt P35368); test: Inhibition of human Alpha-1B adrenergic receptor expressed in HEK293T cells at 10 uM relative to control; type: cell-based
# [22] = target: D(4) dopamine receptor (Homo sapiens) (UniProt P21917); test: Inhibition of human D(4) dopamine receptor in stable HEK cells at 10 uM relative to control; type: cell-based
# [23] = target: Alpha-2C adrenergic receptor (Homo sapiens) (UniProt P18825); test: Inhibition of human Alpha-2C adrenergic receptor in stable Canis lupus familiaris MDCK cells at 10 uM relative to control; type: cell-based
# [24] = target: 5-hydroxytryptamine receptor 6 (Homo sapiens) (UniProt P50406); test: Inhibition of human 5-HT6 expressed in stable HEK cells at 10 uM relative to control; type: cell-based
# [25] = target: Muscarinic acetylcholine receptor M4 (Homo sapiens) (UniProt P08173); test: Inhibition of human Muscarinic acetylcholine receptor M4 expressed in stable Cricetulus griseus CHO cells at 10 uM relative to control; type: cell-based
# [26] = target: Alpha-2A adrenergic receptor (Homo sapiens) (UniProt P08913); test: Inhibition of human Alpha-2A adrenergic receptor in stable Canis lupus familiaris MDCK cells at 10 uM relative to control; type: cell-based
# [27] = target: Muscarinic acetylcholine receptor M3 (Homo sapiens) (UniProt P20309); test: Inhibition of human Muscarinic acetylcholine receptor M3 expressed in stable Cricetulus griseus CHO cells at 10 uM relative to control; type: cell-based
# [28] = target: Beta-3 adrenergic receptor (Homo sapiens) (UniProt P13945); test: Inhibition of human Beta-3 adrenergic receptor expressed in human Flp-In-293 cells at 10 uM relative to control; type: cell-based
# Chain of 5-hydroxytryptamine receptor 6 (Homo sapiens) (P50406 whole entry): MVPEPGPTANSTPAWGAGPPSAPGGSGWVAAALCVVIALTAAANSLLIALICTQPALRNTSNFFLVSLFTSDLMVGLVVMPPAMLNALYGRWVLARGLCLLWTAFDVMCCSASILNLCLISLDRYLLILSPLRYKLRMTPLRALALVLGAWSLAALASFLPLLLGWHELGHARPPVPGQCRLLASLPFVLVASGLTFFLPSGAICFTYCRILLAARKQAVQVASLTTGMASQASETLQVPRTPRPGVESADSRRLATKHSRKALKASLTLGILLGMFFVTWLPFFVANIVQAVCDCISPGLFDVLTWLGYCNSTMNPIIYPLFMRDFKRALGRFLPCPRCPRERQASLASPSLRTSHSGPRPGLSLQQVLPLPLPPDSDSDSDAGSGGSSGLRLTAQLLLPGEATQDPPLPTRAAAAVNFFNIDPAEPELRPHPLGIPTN
# Chain of Delta-type opioid receptor (Homo sapiens) (P41143 whole entry): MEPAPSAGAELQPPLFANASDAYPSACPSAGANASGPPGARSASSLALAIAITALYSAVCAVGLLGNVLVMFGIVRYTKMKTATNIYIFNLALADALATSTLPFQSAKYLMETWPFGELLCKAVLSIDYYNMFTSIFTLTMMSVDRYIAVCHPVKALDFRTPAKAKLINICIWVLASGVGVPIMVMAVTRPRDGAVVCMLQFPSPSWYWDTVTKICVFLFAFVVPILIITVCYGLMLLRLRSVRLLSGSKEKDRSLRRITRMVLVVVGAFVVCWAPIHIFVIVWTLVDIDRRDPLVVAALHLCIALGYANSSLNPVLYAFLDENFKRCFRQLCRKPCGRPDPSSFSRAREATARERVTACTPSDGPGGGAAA
# Chain of Muscarinic acetylcholine receptor M3 (Homo sapiens) (P20309 whole entry, looked up): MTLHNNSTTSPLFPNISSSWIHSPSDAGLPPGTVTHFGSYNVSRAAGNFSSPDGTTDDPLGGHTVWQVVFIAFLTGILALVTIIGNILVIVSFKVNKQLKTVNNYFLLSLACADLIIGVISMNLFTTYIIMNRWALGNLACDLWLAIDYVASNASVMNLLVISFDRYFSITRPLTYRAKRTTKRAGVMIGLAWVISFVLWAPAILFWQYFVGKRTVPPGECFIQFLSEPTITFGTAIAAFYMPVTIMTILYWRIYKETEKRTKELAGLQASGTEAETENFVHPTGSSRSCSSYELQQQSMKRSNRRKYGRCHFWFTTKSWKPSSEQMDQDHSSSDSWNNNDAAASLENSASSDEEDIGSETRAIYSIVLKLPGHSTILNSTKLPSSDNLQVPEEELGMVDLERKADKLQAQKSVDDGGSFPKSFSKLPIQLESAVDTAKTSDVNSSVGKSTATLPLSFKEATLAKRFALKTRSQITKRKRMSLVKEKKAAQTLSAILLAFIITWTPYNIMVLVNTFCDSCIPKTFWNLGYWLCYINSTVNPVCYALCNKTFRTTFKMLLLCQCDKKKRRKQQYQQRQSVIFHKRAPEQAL
# Chain of Adenosine receptor A2a (Homo sapiens) (P29274 whole entry): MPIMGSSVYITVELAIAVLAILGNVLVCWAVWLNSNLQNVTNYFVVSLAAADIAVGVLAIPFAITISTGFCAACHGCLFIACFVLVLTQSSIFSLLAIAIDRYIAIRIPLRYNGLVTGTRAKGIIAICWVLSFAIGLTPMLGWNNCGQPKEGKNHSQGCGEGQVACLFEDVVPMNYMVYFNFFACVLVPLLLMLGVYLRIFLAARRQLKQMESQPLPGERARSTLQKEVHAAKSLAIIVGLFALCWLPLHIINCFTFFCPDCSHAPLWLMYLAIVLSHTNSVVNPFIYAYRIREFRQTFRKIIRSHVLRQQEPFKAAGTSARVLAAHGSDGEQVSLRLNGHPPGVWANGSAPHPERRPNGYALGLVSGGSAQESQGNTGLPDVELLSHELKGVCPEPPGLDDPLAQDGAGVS
# Chain of Vasopressin V1a receptor (Homo sapiens) (P37288 whole entry, looked up): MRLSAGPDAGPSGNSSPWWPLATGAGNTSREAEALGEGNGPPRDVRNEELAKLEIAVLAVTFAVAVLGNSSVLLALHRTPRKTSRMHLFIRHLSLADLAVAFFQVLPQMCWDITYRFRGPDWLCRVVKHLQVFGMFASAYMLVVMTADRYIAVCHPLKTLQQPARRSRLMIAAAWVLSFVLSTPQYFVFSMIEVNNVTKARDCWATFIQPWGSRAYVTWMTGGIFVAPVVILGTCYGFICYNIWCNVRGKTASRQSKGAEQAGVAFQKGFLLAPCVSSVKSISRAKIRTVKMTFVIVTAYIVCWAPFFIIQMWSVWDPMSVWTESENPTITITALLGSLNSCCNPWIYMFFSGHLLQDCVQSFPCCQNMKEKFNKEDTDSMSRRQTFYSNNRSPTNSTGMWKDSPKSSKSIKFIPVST
# Chain of 5-hydroxytryptamine receptor 5A (Homo sapiens) (P47898 whole entry): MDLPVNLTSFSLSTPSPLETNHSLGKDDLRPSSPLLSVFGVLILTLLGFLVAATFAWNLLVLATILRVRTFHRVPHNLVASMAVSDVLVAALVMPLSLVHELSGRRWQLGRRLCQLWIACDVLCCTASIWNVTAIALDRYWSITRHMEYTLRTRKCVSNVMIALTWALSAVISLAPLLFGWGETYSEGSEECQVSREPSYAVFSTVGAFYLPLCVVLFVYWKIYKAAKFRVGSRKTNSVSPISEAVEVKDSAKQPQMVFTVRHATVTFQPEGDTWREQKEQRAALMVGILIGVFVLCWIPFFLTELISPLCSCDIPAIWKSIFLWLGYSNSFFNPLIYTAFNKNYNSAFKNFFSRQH
# Chain of Histamine H1 receptor (Homo sapiens) (P35367 whole entry): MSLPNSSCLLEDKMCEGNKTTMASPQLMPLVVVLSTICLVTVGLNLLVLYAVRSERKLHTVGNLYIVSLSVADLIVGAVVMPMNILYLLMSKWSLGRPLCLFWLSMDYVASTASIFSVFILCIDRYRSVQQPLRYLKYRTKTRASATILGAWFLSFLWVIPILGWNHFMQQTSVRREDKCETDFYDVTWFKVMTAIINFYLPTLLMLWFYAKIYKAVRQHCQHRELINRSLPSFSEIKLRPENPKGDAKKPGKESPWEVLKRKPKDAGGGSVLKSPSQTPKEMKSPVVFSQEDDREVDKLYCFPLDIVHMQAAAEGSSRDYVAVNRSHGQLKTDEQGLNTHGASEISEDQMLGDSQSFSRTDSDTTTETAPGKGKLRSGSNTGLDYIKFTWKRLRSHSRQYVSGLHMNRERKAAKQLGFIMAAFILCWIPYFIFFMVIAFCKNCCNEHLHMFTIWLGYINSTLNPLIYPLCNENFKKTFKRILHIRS
# Chain of Neuropeptide Y receptor type 2 (Homo sapiens) (P49146 whole entry): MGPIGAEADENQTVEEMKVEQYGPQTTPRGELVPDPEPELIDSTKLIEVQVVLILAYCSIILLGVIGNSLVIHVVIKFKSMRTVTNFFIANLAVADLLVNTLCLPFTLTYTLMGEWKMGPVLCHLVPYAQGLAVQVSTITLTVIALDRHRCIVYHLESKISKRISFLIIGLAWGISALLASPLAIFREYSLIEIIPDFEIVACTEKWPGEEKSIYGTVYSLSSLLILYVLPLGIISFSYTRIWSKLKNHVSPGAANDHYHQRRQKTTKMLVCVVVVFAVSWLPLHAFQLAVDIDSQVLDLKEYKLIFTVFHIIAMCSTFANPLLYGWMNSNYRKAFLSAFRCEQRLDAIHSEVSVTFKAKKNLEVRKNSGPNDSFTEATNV
# Chain of D(4) dopamine receptor (Homo sapiens) (P21917 whole entry): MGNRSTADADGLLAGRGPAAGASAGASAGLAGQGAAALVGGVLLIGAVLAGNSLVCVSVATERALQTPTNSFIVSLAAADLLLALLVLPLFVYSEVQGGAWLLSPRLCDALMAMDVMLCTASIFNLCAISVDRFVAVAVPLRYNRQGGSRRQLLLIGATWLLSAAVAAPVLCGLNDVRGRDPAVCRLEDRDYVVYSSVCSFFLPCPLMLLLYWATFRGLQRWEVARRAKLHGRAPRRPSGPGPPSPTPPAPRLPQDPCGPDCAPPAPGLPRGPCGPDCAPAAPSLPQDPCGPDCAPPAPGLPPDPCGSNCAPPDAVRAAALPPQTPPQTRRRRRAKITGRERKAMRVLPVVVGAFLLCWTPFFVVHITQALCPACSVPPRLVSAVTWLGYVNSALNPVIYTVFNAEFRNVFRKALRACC
# Chain of 5-hydroxytryptamine receptor 2B (Homo sapiens) (P41595 whole entry): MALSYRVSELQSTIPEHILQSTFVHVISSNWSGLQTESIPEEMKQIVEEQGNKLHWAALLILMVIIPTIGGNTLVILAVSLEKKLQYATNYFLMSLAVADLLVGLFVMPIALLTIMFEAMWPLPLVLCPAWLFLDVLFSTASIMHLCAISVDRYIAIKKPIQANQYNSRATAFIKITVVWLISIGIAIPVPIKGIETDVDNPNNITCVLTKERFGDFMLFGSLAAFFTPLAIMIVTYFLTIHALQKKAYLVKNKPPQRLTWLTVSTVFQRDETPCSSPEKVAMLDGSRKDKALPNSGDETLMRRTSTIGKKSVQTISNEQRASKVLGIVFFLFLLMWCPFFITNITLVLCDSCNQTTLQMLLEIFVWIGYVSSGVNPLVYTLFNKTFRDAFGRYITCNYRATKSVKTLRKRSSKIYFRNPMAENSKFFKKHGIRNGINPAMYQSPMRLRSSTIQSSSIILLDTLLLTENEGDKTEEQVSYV
# Chain of Histamine H3 receptor (Homo sapiens) (Q9Y5N1 whole entry): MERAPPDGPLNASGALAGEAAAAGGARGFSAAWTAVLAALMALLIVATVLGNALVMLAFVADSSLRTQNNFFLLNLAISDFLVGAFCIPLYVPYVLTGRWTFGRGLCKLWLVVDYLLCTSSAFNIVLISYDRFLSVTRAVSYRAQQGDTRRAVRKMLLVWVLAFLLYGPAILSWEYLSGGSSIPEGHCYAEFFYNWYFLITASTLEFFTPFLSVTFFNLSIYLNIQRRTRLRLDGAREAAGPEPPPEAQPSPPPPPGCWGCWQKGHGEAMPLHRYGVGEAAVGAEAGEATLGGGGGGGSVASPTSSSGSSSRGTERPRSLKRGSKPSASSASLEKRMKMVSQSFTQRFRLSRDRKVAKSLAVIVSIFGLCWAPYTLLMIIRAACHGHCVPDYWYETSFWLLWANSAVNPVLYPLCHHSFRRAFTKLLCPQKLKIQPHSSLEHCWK
Structure (SMILES),Activity (Embryonic stem cell),inhibition (B-cell),inhibition [1] [%],inhibition [2] [%],inhibition [3] [%],inhibition [4] [%],inhibition (Homo sapiens) [%],inhibition [5] [%],inhibition [6] [%],inhibition [7] [%],inhibition [8] [%],inhibition [9] [%],inhibition [10] [%],inhibition [11] [%],inhibition [12] [%],inhibition [13] [%],inhibition [14] [%],inhibition [15] [%],inhibition [16] [%],inhibition [17] [%],other results
O=C(c1nnc(NC2CCCC2)c2cc(Cl)c(Cl)cc12)N1CCC(O)CC1,inactive,inactive,55,22,6,8,-5,-1,-1,18,-7,10,-2,-1,96,13,-4,-5,81,2,inhibition [18]: 8%; inhibition [19]: -4%; inhibition [20]: -1%; inhibition (Rattus norvegicus): 29%; inhibition [21]: -4%; inhibition [22]: -2%; inhibition [23]: 4%; inhibition [24]: -1%; inhibition [25]: -7%; inhibition [26]: 5%; inhibition [27]: -3%; inhibition [28]: -8%
Clc1cc2c(NC3CCCC3)nnc(-c3ccncc3)c2cc1Cl,Active,Active,98,98,51,27,17,14,14,11,10,9,7,5,4,3,-1,-8,39,17,inhibition [18]: 11%; inhibition [19]: 6%; inhibition [20]: 5%; inhibition (Rattus norvegicus): 5%; inhibition [21]: 1%; inhibition [22]: 1%; inhibition [23]: 0%; inhibition [24]: -2%; inhibition [25]: -3%; inhibition [26]: -6%; inhibition [27]: -8%; inhibition [28]: -9%
